Columns and labels:
Assay type in all cases: in vivo
[1] = test system: AMARE: Amaranthus retroflexus; test: Post-emergence herbicidal efficacy at 80 g/ha, AMARE; conditions: visual rating about 3 weeks after treatment vs untreated controls
Protocol: Seeds of monocotyledonous and dicotyledonous weeds and crop plants were placed in sandy loam in plastic or organic planting pots, covered with soil and cultivated in a greenhouse under controlled growth conditions. 2 to 3 weeks after sowing, the test plants were treated at the one-leaf stage. The compounds of the invention, formulated in the form of wettable powders (WP) or as emulsion concentrates (EC), were then sprayed onto the green parts of the plants as aqueous suspension or emulsion with addition of 0.5% additive at a water application rate of 600 l/ha (converted). After the test plants had been kept in the greenhouse under optimum growth conditions for about 3 weeks, the activity of the preparations was rated visually in comparison to untreated controls. For example, 100% activity=the plants have died, 0% activity=like control plants. Tables B1 to B10 below show the effects of selected compounds of the general formula (I) according to Table 1 on various harmful plants and an application rate corresponding to 80 g/ha, which were obtained by the experimental procedure mentioned above.

[2] = test system: AMARE: Amaranthus retroflexus; test: Pre-emergence herbicide efficacy at 80 g/ha, AMARE; conditions: scored visually after about 3 weeks
Excerpt: Seeds of monocotyledonous and dicotyledonous weed plants and crop plants were placed in plastic or organic planting pots and covered with soil. The compounds of the invention, formulated in the form of wettable powders (WP) or as emulsion concentrates (EC), were then applied to the surface of the covering soil as aqueous suspension or emulsion with addition of 0.5% additive at a water application rate equivalent to 600 l/ha. After the treatment, the pots were placed in a greenhouse and kept under good growth conditions for the test plants. After about 3 weeks, the efficacy of the preparations was scored visually in comparison with untreated controls as percentages. For example, 100% activity=the plants have died, 0% activity=like control plants. Tables D1 to D12 below show the effects of selected compounds of the general formula (I) according to Table 1 on various harmful plants and an application rate corresponding to 80 g/ha, which were obtained by the experimental procedure mentioned above.

SETVI: Setaria viridis [3] = test: Pre-emergence herbicide efficacy at 1280 g/ha, SETVI; conditions: visual scoring vs untreated controls
Excerpt: (§1) Seeds of mono- and dicotyledonous weed plants were placed in plastic pots in sandy loam soil (doubly sown with one species each of mono- or dicotyledonous weed plants per pot) and covered with soil. The compounds of the invention, formulated in the form of wettable powders (WP) or as emulsion concentrates (EC), were then applied to the surface of the covering soil as aqueous suspension or emulsion with addition of 0.5% additive at a water application rate of 600 litres per hectare (converted). After the treatment, the pots were placed in a greenhouse and kept under good growth conditions for the test plants. After about 3 weeks, the efficacy of the preparations was scored visually in comparison with untreated controls as percentages. For example, 100% activity=the plants have died, 0% activity=like control plants. Tables C1 to C12 below show the effects of selected compounds of the general formula (I) according to Table 1 on various harmful plants and at an application rate corresponding to 1280 g/ha, which were obtained by the trial procedure specified above.

[4] = test system: AMARE: Amaranthus retroflexus; test: Post-emergence herbicidal efficacy at 1280 g/ha, AMARE; conditions: rated visually after about 3 weeks vs untreated controls, 100% = plants have died, 0% = like control plants
Protocol: (§2) Seeds of mono- and dicotyledonous weed plants were placed in plastic pots in sandy loam soil (doubly sown with in each case one species of mono- or dicotyledonous weed plants per pot), covered with soil and cultivated in a greenhouse under controlled growth conditions. 2 to 3 weeks after sowing, the test plants were treated at the one-leaf stage. The compounds of the invention, formulated in the form of wettable powders (WP) or as emulsion concentrates (EC), were applied to the green parts of the plants as aqueous suspension or emulsion with addition of 0.5% additive at a water application rate equivalent to 600 litres per hectare. After the test plants had been kept in the greenhouse under optimum growth conditions for about 3 weeks, the activity of the preparations was rated visually in comparison to untreated controls. For example, 100% activity=the plants have died, 0% activity=like control plants. Tables A1 to A12 below show the effects of selected compounds of the general formula (I) according to Table 1 on various harmful plants and at an application rate corresponding to 1280 g/ha, which were obtained by the trial procedure specified above.

POAAN: Poa annua [5] = test: Post-emergence herbicidal efficacy at 1280 g/ha, POAAN; conditions: visual rating about 3 weeks after treatment vs untreated controls
Protocol: as §2

SETVI: Setaria viridis [6] = test: Post-emergence herbicidal efficacy at 1280 g/ha, SETVI; conditions: visual rating about 3 weeks after treatment vs untreated controls
Protocol: as §2

POAAN: Poa annua [7] = test: Pre-emergence herbicide efficacy at 1280 g/ha, POAAN; conditions: visual scoring after about 3 weeks vs untreated controls
Excerpt: as §1

[8] = test system: AMARE: Amaranthus retroflexus; test: Pre-emergence herbicide efficacy at 1280 g/ha, AMARE; conditions: visual scoring after about 3 weeks vs untreated controls
Excerpt: as §1

KCHSC: Kochia scoparia [9] = test: Pre-emergence herbicide efficacy at 1280 g/ha, KCHSC; conditions: visual scoring after about 3 weeks vs untreated controls
Excerpt: as §1

[10] = test system: DIGSA: Digitaria sanguinalis; test: Pre-emergence herbicide efficacy at 1280 g/ha, DIGSA; conditions: visual scoring after about 3 weeks vs untreated controls
Excerpt: as §1

[11] = test system: ABUTH: Abutilon theophrasti; test: Post-emergence herbicidal efficacy at 1280 g/ha, ABUTH; conditions: rated visually after about 3 weeks vs untreated controls, 100% = plants have died, 0% = like control plants
Protocol: as §2

[12] = test system: ECHCG: Echinochloa crus-galli; test: Post-emergence herbicidal efficacy at 1280 g/ha, ECHCG; conditions: rated visually after about 3 weeks vs untreated controls, 100% = plants have died, 0% = like control plants
Protocol: as §2

VERPE: Veronica persica [13] = test: Post-emergence herbicidal efficacy at 1280 g/ha, VERPE; conditions: visual rating about 3 weeks after treatment vs untreated controls
Protocol: as §2

STEME: Stellaria media [14] = test: Post-emergence herbicidal efficacy at 1280 g/ha, STEME; conditions: visual rating about 3 weeks after treatment vs untreated controls
Protocol: as §2

VERPE: Veronica persica [15] = test: Pre-emergence herbicide efficacy at 1280 g/ha, VERPE; conditions: visual scoring vs untreated controls
Excerpt: as §1

[16] = test system: ABUTH: Abutilon theophrasti; test: Pre-emergence herbicide efficacy at 1280 g/ha, ABUTH; conditions: visual scoring after about 3 weeks vs untreated controls
Excerpt: as §1

[17] = test system: ECHCG: Echinochloa crus-galli; test: Pre-emergence herbicide efficacy at 1280 g/ha, ECHCG; conditions: visual scoring after about 3 weeks vs untreated controls
Excerpt: as §1

STEME: Stellaria media [18] = test: Pre-emergence herbicide efficacy at 1280 g/ha, STEME; conditions: visual scoring vs untreated controls
Excerpt: as §1

KCHSC: Kochia scoparia [19] = test: Post-emergence herbicidal efficacy at 1280 g/ha, KCHSC; conditions: visual rating about 3 weeks after treatment vs untreated controls
Protocol: as §2

SMILES | Post-emergence efficacy against AMARE [1] [%] | Post-emergence efficacy at 1280 g/ha against AMARE in % [4] [%] | Post-emergence efficacy against POAAN (POAAN: Poa annua [5]) [%] | Pre-emergence efficacy against POAAN (POAAN: Poa annua [7]) [%] | Pre-emergence efficacy against AMARE [8] [%] | Pre-emergence efficacy against DIGSA [10] [%] | Post-emergence efficacy at 1280 g/ha against ABUTH in % [11] [%] | Post-emergence efficacy against VERPE (VERPE: Veronica persica [13]) [%] | also measured
O=S(=O)(CCCC(F)(F)F)Oc1c(F)cccc1Cc1ncc(F)cn1 [Example 1-15] | 90 |  |  |  |  |  |  |  | 
O=S(=O)(CCC(F)(F)F)Oc1c(F)cccc1Cc1ncc(F)cn1 [Example 1-17] | 90 |  |  |  |  |  |  |  | Pre-emergence efficacy against AMARE in % [2]: 80%
O=S(=O)(CCCC(F)(F)F)Oc1c(Cl)cccc1Cc1ncc(Cl)cn1 [Example 1-18] | 90 |  |  |  |  |  |  |  | 
O=S(=O)(CCC(F)(F)F)Oc1c(Cl)cccc1Cc1ncc(Cl)cn1 [Example 1-20] | 90 |  |  |  |  |  |  |  | 
O=S(=O)(CCC(F)(F)F)Oc1c(Cl)cccc1Cc1ncc(F)cn1 [Example 1-21] | 90 |  |  |  |  |  |  |  | Pre-emergence efficacy against AMARE in % [2]: 90%
Fc1ccc(Oc2ccccc2Cc2ccc(Cl)cn2)cc1 [Example 1-74] |  | 90 | 90 | 100 | 100 | 100 |  |  | Pre-emergence efficacy against SETVI in % (SETVI: Setaria viridis [3]): 100%; Post-emergence efficacy against SETVI (SETVI: Setaria viridis [6]): 90%; Pre-emergence efficacy against KCHSC (KCHSC: Kochia scoparia [9]): 90%
N#CC(c1ncc(F)cn1)c1ccccc1Cc1ccc(F)cc1 (centres unmarked) [Example 1-81] |  | 90 |  | 100 |  |  | 90 | 90 | Post-emergence efficacy at 1280 g/ha against ECHCG in % [12]: 90%
Fc1ccc(Cc2ccccc2Cc2ncc(F)cn2)cc1 [Example 1-95] |  | 100 | 100 | 90 | 100 | 90 | 100 | 90 | Post-emergence efficacy against SETVI (SETVI: Setaria viridis [6]): 90%; Post-emergence efficacy against STEME (STEME: Stellaria media [14]): 100%; Pre-emergence efficacy against VERPE in % (VERPE: Veronica persica [15]): 100%; Pre-emergence efficacy against ABUTH [16]: 100%; Pre-emergence efficacy against KCHSC (KCHSC: Kochia scoparia [9]): 90%; Pre-emergence efficacy against ECHCG [17]: 90%; Pre-emergence efficacy against STEME in % (STEME: Stellaria media [18]): 100%; Post-emergence efficacy against KCHSC (KCHSC: Kochia scoparia [19]): 100%
Fc1ccc(Cc2ccccc2Cc2ccc(Cl)cn2)cc1 [Example 1-96] |  | 100 | 90 |  | 100 | 100 | 100 | 100 | Pre-emergence efficacy against SETVI in % (SETVI: Setaria viridis [3]): 90%; Post-emergence efficacy against STEME (STEME: Stellaria media [14]): 90%; Pre-emergence efficacy against ABUTH [16]: 100%; Pre-emergence efficacy against ECHCG [17]: 90%; Post-emergence efficacy at 1280 g/ha against ECHCG in % [12]: 90%; Post-emergence efficacy against KCHSC (KCHSC: Kochia scoparia [19]): 90%
